Data as given in PMC11249646, “Small-Molecule Disruptors of the Interaction between Calcium- and Integrin-Binding Protein 1 and Integrin αIIbβ3 as Novel Antiplatelet Agents” (ACS Pharmacology & Translational Science, 2024).

Columns and labels:
[1] = target: T1, GST-CIB1 : F-scrambled peptide (Homo sapiens, UniProt Q99828); assay: FP scrambled-peptide counter screen, 384-well format; type: binding; settings: F-scrambled peptide
T1 construct: made in house; host or cells: BL-21 plus RIL cells (E. coli)
T1 sequence (Q99828 1-191): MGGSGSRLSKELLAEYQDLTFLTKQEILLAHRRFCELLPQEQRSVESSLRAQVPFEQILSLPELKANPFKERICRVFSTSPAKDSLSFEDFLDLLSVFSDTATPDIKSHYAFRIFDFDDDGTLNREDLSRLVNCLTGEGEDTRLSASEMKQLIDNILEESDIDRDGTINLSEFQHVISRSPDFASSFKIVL

[2] = system: washed human platelets; assay: Human platelet aggregation assay (thrombin-induced); type: cell-based
Text: A classical challenge in target-based drug discovery is moving from biochemical to cellular assay and the essential step of determining if the compounds of interest can perform in a cellular context. After characterization of the compounds in a series of biochemical assay formats, our next step was to assess their activity in a cellular environment. Our previous studies have shown that the interaction of the cytoplasmic domain of integrin αIIbβ3, a key regulator of platelet aggregation, with CIB1, is involved in downstream signaling in platelet activation and aggregation. We sought to determine whether our candidate compounds were inhibiting this interaction by evaluating them for platelet function in a human platelet aggregation assay. We prepared platelet-rich plasma (PRP) and washed the platelets as previously described[44] and then performed a platelet aggregation assay using the washed platelet suspensions (2 × 10^8/platelets/mL) followed by the recording of aggregation traces (see Materials and Methods Section). To induce platelet aggregation, 0.03 U/mL of thrombin, a physiological agonist of platelet activation, was used.
(§1) Figure 6 Effect of compounds on human platelet activation. Representative platelet aggregation tracings of washed human platelet suspensions pretreated for 30 min at 37 °C with vehicle (DMSO) or compounds at indicated concentrations followed by activation with thrombin (0.03–0.1 U/mL). Panel (A): NCGC00071855. Panel (B–D): NCGC00351170. Panel (E): CD62P exposure was in the presence of NCGC00351170. Data represents mean ± SEM, n = 4 individual experiments; ns = non significant *P < 0.05, ***P < 0.001, ****P < 0.0001.
(§2) Whole blood was drawn by venipuncture from healthy adult volunteers (of both gender and race) with informed consent. Approval was obtained from the institutional review boards of Thomas Jefferson University, according to the Declaration of Helsinki. Blood was collected in acidified citrate dextrose as an anticoagulant. Platelet-rich plasma (PRP) and washed platelets were prepared, as previously described.[44] Platelet aggregation was performed using washed platelet suspensions containing 2 × 10^8 platelets/mL using a Chrono-Log Lumi-Aggregometer (Chrono-Log), as described previously.[11] Aggregation traces were recorded by using Aggrolink software (Chrono-Log). Thrombin-induced P-selectin (CD62P) exposure was performed using Accuri C6 flowcytometer (BD Bioscience) as described previously.[11]
Figure S9: Effect of compounds on human platelet activation. Representative platelet aggregation
tracings of washed human platelet suspensions treated with vehicle (DMSO) or indicated
compounds at 10 μM for 30 minutes at 37 °C followed by activation with thrombin (0.03U/mL).

[3] = system: P-selectin (CD62P) exposure on human platelets; assay: Thrombin-induced P-selectin (CD62P) exposure, flow cytometry; type: cell-based; settings: various doses
Procedure: […]. These findings indicate that through the utilization of this FP assay, we successfully identified inhibitors of platelet function, which may warrant further assessment for their potential as antiplatelet agents.
as §1
as §2, with “Thrombin-induced P-selectin (CD62P) exposure was performed using Accuri C6 flowcytometer (BD Bioscience) as described previously.[11]” left out

[4] = In vitro ADME: PAMPA permeability
[5] = target: T2, CIB1 and αIIb peptide (Homo sapiens, UniProt Q99828); assay: Intrinsic tryptophan fluorescence (ITF) assay
T2 sequence (Q99828 1-191): T1 sequence (Q99828 1-191)

## COc1ccccc1C(=O)c1no[n+]([O-])c1C(=O)c1ccccc1OC.O=C(O)C(F)(F)F [NCGC00351170-01]
[1]
  384-well COUNTERSCREEN Efficacy (%): 34%
[1]; *: Curve in opposite direction
  384-well COUNTERSCREEN Confirm?: Inconclusive
[1]; read-out: 384-well COUNTERSCREEN IC50
  IC50: 8.9 µM
[2]; 10 μM compound
  Platelet Aggregation Result: Active
[2]; Homo sapiens, Platelet, single concentration of 10 μM (n = 3), thrombin
  inhibition at 10 µM: 94%
[2]; dose response, thrombin
  lowest concentration required to achieve >95% inhibition of platelet aggregation: 2 µM
[2]; platelet aggregation inhibition at 10 µM
  Thrombin Assay 10 µM (%): 94%
[3]
  P-selectin (CD62P) exposure: dose-dependent inhibition of platelet activation
[4]
  Papp: 102 ×10⁻⁶ cm/s
[5]
  IC50: 15.6 µM
